Assay results taken from publication PMC9322122, “Development of (4-Phenylamino)quinazoline Alkylthiourea Derivatives as Novel NF-κB Inhibitors” (Pharmaceuticals, 2022).

Columns and labels:
NF-κB = NF-κB luciferase reporter assay; format: cell-based; conditions: Homo sapiens, NF-κB-luciferase-transfected HEK293 cells, TNFα 50 ng/mL; for inhibition at 10 µM: mean ± SEM, n = 3, read-out: NF-κB Luciferase Activity Inh %
Experimental: NF-κB Luciferase Reporter Vector was purchased from Signosis (Santa Clara, CA, USA) and transfected into HEK-293 cells using FuGENE HD (Promega, Fitchburg, MA, USA) following the manufacturer’s protocol. The transfected cells were incubated in serum-free DMEM for 16 h and then treated with DMSO or indicated compounds. After 3 h, cells were treated with or without 50 ng/mL of Recombinant Human TNFα Protein (R&D systems, Minneapolis, MN, USA) for another 3 h. The protein lysates were analyzed using Steady-Glo® Luciferase Assay System (Promega, Fitchburg, MA, USA) and TECAN Infinite 200 pro (Männedorf, Switzerland).

[1] = Cell viability (WST-1), HEK293; format: cell-based; conditions: human, HEK293 cells, mean ± SEM, n = 3
Experimental: (§1) Cells were incubated with the WST-1 reagent (Thermo Fisher Scientific, Waltham, MA, USA) at 37 °C for 2 h. The cell viability was determined by spectrophotometer at 450 nm.

[2] = Cell viability (WST-1), A549; format: cell-based; conditions: human, A549 cells, mean ± SEM, n = 3
Experimental: as §1

Recombinant EGFR kinase = Recombinant EGFR kinase (Homo sapiens, UniProt P00533); experiment: Recombinant EGFR kinase activity; format: biochemical; conditions: read-out: Recombinant EGFR Kinase Activity (%inh at 150 nM)
TNFα production = TNFα production in LPS-activated dTHP-1 cells (ELISA); format: cell-based; conditions: Homo sapiens
Experimental: (§2) The HEK-293 (ATCC Cat# CRL-1573, RRID:CVCL_0045) and human monocytic THP−1 cells (ATCC Cat# TIB-202, RRID:CVCL_0006) were, respectively, cultured in DMEM and RPMI 1640 media supplemented with 10% fetal bovine serum, 2 mM L-glutamine, and 1× Antibiotic-Antimycotic at 37 °C in a humidified incubator with 5% CO2. THP−1 cells were differentiated by 100 nM phorbol-12-myristate-13-acetate (PMA) for 4 h and then rested for 44 h as dTHP−1 cells.
(§3) The dTHP−1 cells were treated with indicated compounds for 3 h and then activated with or without 100 ng/mL lipopolysaccharide (LPS; E. coli 0111:B4) for another 24 h. The levels of human IL-6 and TNFα in supernatants were measured by DuoSet® ELISA Development System (R&D systems, Minneapolis, MN, USA) according to the manufacturer’s protocol.

dTHP−1 cells = experiment: Cell viability of dTHP-1 cells with or without LPS; format: cell-based, human; conditions: in % (unit assumed)
Experimental: as §2, §1, §3

IL-6 production = IL-6 production in LPS-activated dTHP-1 cells (ELISA); format: cell-based, human; conditions: Homo sapiens
Experimental: as §2, §3

[3] = LPS-activated dTHP-1 cells, 24 h

Chain of Recombinant EGFR kinase (P00533 25-1210): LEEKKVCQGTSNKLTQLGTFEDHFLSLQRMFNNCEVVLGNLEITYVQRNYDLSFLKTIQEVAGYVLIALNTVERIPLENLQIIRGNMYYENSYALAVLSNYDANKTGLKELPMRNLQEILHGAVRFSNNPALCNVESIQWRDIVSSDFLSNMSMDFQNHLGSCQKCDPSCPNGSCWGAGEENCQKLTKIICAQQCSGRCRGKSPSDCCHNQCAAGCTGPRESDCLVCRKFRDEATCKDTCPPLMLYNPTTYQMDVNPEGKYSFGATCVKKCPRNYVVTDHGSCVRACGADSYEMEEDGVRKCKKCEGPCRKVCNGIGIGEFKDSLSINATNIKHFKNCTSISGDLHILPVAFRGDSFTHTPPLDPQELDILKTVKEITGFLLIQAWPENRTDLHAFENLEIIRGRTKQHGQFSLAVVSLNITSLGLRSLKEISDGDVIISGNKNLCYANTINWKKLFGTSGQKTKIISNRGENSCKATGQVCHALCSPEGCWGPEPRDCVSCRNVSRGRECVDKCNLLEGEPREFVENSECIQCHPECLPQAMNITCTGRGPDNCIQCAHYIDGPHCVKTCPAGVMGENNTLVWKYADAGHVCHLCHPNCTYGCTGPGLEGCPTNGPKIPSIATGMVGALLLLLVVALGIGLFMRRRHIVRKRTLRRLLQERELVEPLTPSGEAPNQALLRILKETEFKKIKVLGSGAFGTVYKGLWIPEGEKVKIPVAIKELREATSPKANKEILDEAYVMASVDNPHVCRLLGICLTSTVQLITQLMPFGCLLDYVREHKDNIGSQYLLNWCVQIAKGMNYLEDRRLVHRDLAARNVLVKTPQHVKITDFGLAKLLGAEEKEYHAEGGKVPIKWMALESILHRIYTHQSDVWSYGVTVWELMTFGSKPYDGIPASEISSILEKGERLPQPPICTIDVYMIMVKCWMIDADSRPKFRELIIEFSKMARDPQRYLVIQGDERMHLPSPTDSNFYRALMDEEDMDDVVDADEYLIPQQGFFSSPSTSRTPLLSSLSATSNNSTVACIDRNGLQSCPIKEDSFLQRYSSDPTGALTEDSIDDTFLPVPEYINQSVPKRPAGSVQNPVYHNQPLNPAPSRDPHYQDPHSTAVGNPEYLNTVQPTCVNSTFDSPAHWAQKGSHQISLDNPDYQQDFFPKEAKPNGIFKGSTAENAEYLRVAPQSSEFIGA

SMILES	inhibition at 10 µM (NF-κB) [%]	IC50 (NF-κB) [µM]	viability at 10 µM [1] [%]	melting point [°C]	viability at 10 µM [2] [%]	inhibition at 0.15 µM (Recombinant EGFR kinase) [%]	inhibition at 7.5 µM (TNFα production; 7.5 μM, LPS 100 ng/mL for 24 h, dTHP-1 cells, read-out: TNFα Production Inh % (7.5 μM)) [%]	inhibition at 15 µM (TNFα production; 15 μM, LPS 100 ng/mL for 24 h, dTHP-1 cells, read-out: TNFα Production Inh % (15 μM)) [%]	IC50 (TNFα production; [3]) [µM]	Cell viability of dTHP-1 cells, 5 μM, LPS (dTHP−1 cells; 5 μM (so in the source), LPS 100 ng/mL for 24 h)	Cell viability of dTHP-1 cells, 5 μM, without LPS (dTHP−1 cells; 5 μM (so in the source), no LPS)	Cell viability of dTHP-1 cells, 7.5 μM, without LPS (dTHP−1 cells; 7.5 μM, no LPS)	inhibition at 7.5 µM (IL-6 production; 7.5 μM, LPS 100 ng/mL for 24 h, dTHP-1 cells, read-out: IL-6 Production Inh % (7.5 μM)) [%]	inhibition at 15 µM (IL-6 production; 15 μM, LPS 100 ng/mL for 24 h, dTHP-1 cells, read-out: IL-6 Production Inh % (15 μM)) [%]	IC50 (IL-6 production; [3]) [µM]
S=C(NCc1ccc(Cl)cc1)Nc1ccc2ncnc(Nc3cccc(Cl)c3)c2c1 [Compound 4, 1-(4-Chlorobenzyl)-3-(4-((3-chlorophenyl)amino)quinazolin-6-yl)thiourea]	31.9 ± 9.6	> 10	95.9 ± 3.4	166 to 168	98.1 ± 1.9	56									
S=C(NCc1ccco1)Nc1ccc2ncnc(Nc3cccc(Cl)c3)c2c1 [Compound 10, 1-(4-((3-Chlorophenyl)amino)quinazolin-6-yl)-3-(furan-2-ylmethyl)thiourea]	76.1 ± 2.3	4.3	71.7 ± 3.1	195.6 to 198.2	74.4 ± 11.7	79.1									
Fc1ccc(CNC(=S)Nc2ccc3ncnc(Nc4cccc(Cl)c4)c3c2)cc1 [Compound 5, 1-(4-((3-Chlorophenyl)amino)quinazolin-6-yl)-3-(4-fluorobenzyl)thiourea]	79.1 ± 0.8	1.9	67 ± 6.1	164 to 166	65.3 ± 1.1	72									
CC(C)(C)c1ccc(CNC(=S)Nc2ccc3ncnc(Nc4cccc(Cl)c4)c3c2)cc1 [Compound 1, 1-(4-(tert-Butyl)benzyl)-3-(4-((3-chlorophenyl)amino)quinazolin-6-yl)thiourea]	41.6 ± 3.8	> 10	73.9 ± 4.6	203 to 205	91.1 ± 3.4	42									
COc1ccc(CNC(=S)Nc2ccc3ncnc(Nc4cccc(Cl)c4)c3c2)c(OC)c1 [Compound 7, 1-(4-((3-Chlorophenyl)amino)quinazolin-6-yl)-3-(2,4-dimethoxybenzyl)thiourea]	27.1 ± 3.4	> 10	85.9 ± 2.5	204 to 206	99.5 ± 1.4	48	37 ± 4.9	50.3 ± 5.5	11.9 ± 0.7	91.9 ± 4.2	96.8 ± 4.2	94.4 ± 0.61	71 ± 3.4	84 ± 0.82	1.2 ± 0.16
O=C(NCc1cccc(Cl)c1)Nc1ccc2ncnc(Nc3cccc(Cl)c3)c2c1 [Compound 12, 1-(3-Chlorobenzyl)-3-(4-((3-chlorophenyl)amino)quinazolin-6-yl)urea]	42.7 ± 9.3	> 10	114 ± 3.2	225.5 to 227	101 ± 4.2	34.6									
COc1cccc(CNC(=S)Nc2ccc3ncnc(Nc4cccc(Cl)c4)c3c2)c1 [Compound 8, 1-(4-((3-Chlorophenyl)amino)quinazolin-6-yl)-3-(3-methoxybenzyl)thiourea]	76.1 ± 2.6	2.3	100 ± 6.9	183 to 185	101 ± 2.3	40									
O=C(NC(=S)Nc1ccc2ncnc(Nc3cccc(Cl)c3)c2c1)c1ccccc1 [Compound 16, N-((4-((3-Chlorophenyl)amino)quinazolin-6-yl)carbamothioyl)benzamide]	58.2 ± 5.2	7	102 ± 4	186.1 to 188.5	102 ± 1.6	48.9									
